Test results published in US6872805B2 (Bristol-Myers Squibb Company, priority 2000, dated 2005).

Columns and labels:
[1] = target: HCV NS3/4A protease complex (Hepatitis C virus genotype 1a, UniProt P27958, C1454S/C1711G); experiment: Recombinant HCV NS3/4A protease complex FRET peptide assay (strain not stated); assay type: biochemical; details: IC50, NS3/4A protease enzyme assay, strain not stated; activity ranges
[2] = tested on: HCV replicon in Huh7 cells; experiment: HCV replicon cell-based assay; design: species or system HCV strain 1B; details: Hepatitis C virus, Huh-7, 96 h; HCV replicon, Huh7 cells, 4 days; activity ranges; read-out: EC50
Outline: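 Genotype 1b subgenomic replicon Huh7 cells exposed to compound 4 days at 37° C in 4% FCS, 0.5% DMSO medium. EC50 from TaqMan RT-PCR of HCV RNA, normalized to total RNA by RiboGreen; CC50 from alamar Blue fluorescence after 4 h.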

Chain of HCV NS3/4A protease complex (P27958 1027-1711, stated change not applied): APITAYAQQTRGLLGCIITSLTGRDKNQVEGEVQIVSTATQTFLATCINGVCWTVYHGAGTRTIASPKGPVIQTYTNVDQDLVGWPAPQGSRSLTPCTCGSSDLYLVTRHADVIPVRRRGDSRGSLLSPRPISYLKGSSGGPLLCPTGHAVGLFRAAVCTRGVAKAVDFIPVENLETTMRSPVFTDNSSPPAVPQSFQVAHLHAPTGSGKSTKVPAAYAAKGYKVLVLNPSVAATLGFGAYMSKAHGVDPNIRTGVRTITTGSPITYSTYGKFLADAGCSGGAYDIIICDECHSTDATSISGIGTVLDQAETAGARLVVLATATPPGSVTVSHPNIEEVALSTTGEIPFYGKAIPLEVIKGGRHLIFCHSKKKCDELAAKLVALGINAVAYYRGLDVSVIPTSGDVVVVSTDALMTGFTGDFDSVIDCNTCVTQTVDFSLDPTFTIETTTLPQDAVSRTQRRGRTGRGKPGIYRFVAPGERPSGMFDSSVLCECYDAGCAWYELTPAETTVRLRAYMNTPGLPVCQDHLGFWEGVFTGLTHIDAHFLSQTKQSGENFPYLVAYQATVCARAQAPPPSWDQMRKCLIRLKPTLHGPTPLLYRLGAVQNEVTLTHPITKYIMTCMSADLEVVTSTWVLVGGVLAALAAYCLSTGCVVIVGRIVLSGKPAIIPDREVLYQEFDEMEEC
Chain of HCV NS3/4A protease complex (P27958 1027-1711, stated change not applied): as above

Row | SMILES | IC50 [1] [nM] | EC50 [2] [nM]
1 | C=CC1CC1(NC(=O)C1CC(Oc2cc(-c3ccccc3)nc3cc(OC)ccc23)CN1C(=O)C(NC(=O)C1C2CC1C2)C(C)(C)C)C(=O)NS(=O)(=O)C1CC1 (stereo not drawn) [Compound 105, 1-{2S-[(bicyclo[1.1.1]pentane-2-carbonyl)-amino]-3,3-dimethyl-butyryl}-4R-(7-methoxy-2-phenyl-quinolin-4-yloxy)-pyrrolidine-2S-carboxylic acid (1R-cyclopropanesulfonylaminocarbonyl-2S-vinylcyclopropyl)amide] | < 50 | < 50
2 | C=CC1C[C@]1(NC(=O)[C@@H]1C[C@@H](Oc2cc(-c3ccccc3)nc3cc(OC)ccc23)CN1C(=O)C(NC(=O)OC(C)(C)C)C(C)(C)C)C(=O)NS(=O)(=O)c1ccc(C(C)(C)C)cc1 (stereo partly drawn) [Compound 60] | < 500 | < 500
3 | C=C1C[C@]1(NC(=O)[C@@H]1C[C@@H](Oc2cc(-c3ccccc3)nc3cc(OC)ccc23)CN1C(=O)C(NC(=O)OC(C)(C)C)C(C)(C)C)C(=O)NS(=O)(=O)c1ccc(F)cc1 (stereo partly drawn) [Compound 49] | < 50 | < 500
4 | C=CC1C[C@]1(NC(=O)[C@@H]1C[C@@H](Oc2cc(-c3ccccc3)nc3cc(OC)ccc23)CN1C(=O)C(NC(=O)OC(C)(C)C)C(C)(C)C)C(=O)NS(=O)(=O)c1ccc(OC)cc1 (stereo partly drawn) [Compound 59] | < 50 | < 50
5 | C=C[C@@H]1C[C@]1(NC(=O)C1CC(Oc2cc(-c3ccccc3)nc3cc(OC)ccc23)CN1C(=O)[C@@H](NC(=O)OCC)C(C)(C)C)C(=O)NS(=O)(=O)C1CC1 (stereo partly drawn) [Compound 115, {1S-[2S-(1R-cyclopropanesulfonylaminocarbonyl-2S-vinyl-cyclopropylcarbamoyl)-4R-(7-methoxy-2-phenyl-quinolin-4-yloxy)-pyrrolidine-1-carbonyl]-2,2-dimethyl-propyl}-carbamic acid ethyl ester] | < 50 | < 50
6 | C=CC1CC1(NC(=O)[C@@H]1C[C@@H](Oc2cc(-c3ccccc3)nc3cc(OC)ccc23)CN1C(=O)[C@@H](NC(=O)OC(C)(C)C)C(C)(C)C)C(=O)NS(=O)(=O)C1CC1 (stereo partly drawn) [Compound 91] | < 50 | < 50
7 | C=CC1C[C@]1(NC(=O)[C@@H]1C[C@@H](Oc2cc(-c3ccccc3)nc3cc(OC)ccc23)CN1C(=O)[C@@H](NC(=O)OC(C)(C)C)C(C)(C)C)C(=O)NS(=O)(=O)CC1CCC1 (stereo in doubt) [Compound 15, {1-[2-(1-Cyclobutylmethanesulfonylaminocarbonyl-2-vinylcyclopropylcarbamoyl)-4-(7-methoxy-2-phenylquinolin-4-yloxy)pyrrolidine-1-carbonyl]-2,2-dimethylpropyl}-carbamic acid tert-butyl ester] | < 500 | < 5000
8 | COc1ccc2c(OC3C[C@@H](C(=O)NC4(C(=O)NS(=O)(=O)C5CC5)CC45CCC5)N(C(=O)[C@@H](NC(=O)OC(C)(C)C)C(C)(C)C)C3)cc(-c3ccccc3)nc2c1 (stereo partly drawn) [Compound 136, {1-[2-(1-Cyclopropanesulfonylaminocarbonyl-spiro[2.3]hex-1-ylcarbamoyl)-4-(7-methoxy-2-phenyl-quinolin-4-yloxy)-pyrrolidine-1-carbonyl]-2,2-dimethyl-propyl}-carbamic acid tert-butyl ester] | < 500 | < 5000
9 | C=CC1C[C@]1(NC(=O)[C@@H]1C[C@@H](Oc2cc(-c3ccccc3)nc3cc(OC)ccc23)CN1C(=O)[C@@H](N)C(C)(C)C)C(=O)NS(=O)(=O)C1CC1 (stereo partly drawn) [Compound 28] | < 50 | < 5000
10 | C=CCC[C@](C)(NC(=O)[C@@H]1C[C@@H](Oc2cc(-c3ccccc3)nc3cc(OC)ccc23)CN1C(=O)C(NC(=O)OC(C)(C)C)C(C)(C)C)C(=O)NS(=O)(=O)c1ccc(C)cc1 (stereo partly drawn) [Compound 37] | < 50 | < 50
11 | C=CCC[C@](C)(NC(=O)[C@@H]1C[C@@H](Oc2cc(-c3ccccc3)nc3cc(OC)ccc23)CN1C(=O)C(NC(=O)OC(C)(C)C)C(C)(C)C)C(=O)NS(=O)(=O)c1cccc(Cl)c1 (stereo partly drawn) [Compound 43] | < 50 | < 500
12 | C=C[C@@H]1C[C@]1(NC(=O)C1C[C@@H](Oc2cc(-c3ccccc3)nc3cc(OC)ccc23)CN1C(=O)[C@@H](NC(=O)COc1ccc(F)cc1)C(C)(C)C)C(=O)NS(=O)(=O)C1CC1 (stereo partly drawn) [Compound 109, 1-{2S-[2-(4-Fluoro-phenoxy)-acetylamino]-3,3-dimethyl-butyryl}-4R-(7-methoxy-2-phenyl-quinolin-4-yloxy)-pyrrolidine-2S-carboxylic acid (1R-cyclopropanesulfonylaminocarbonyl-2S-vinylcyclopropyl)-amide] | < 50 | < 500
13 | CCC1C[C@]1(NC(=O)[C@@H]1C[C@@H](Oc2cc(-c3ccccc3)nc3cc(OC)ccc23)CN1C(=O)[C@@H](NC(=O)OC(C)(C)C)C(C)C)C(=O)NS(=O)(=O)C1CC1 (stereo in doubt) [Compound 3, {1-[2-(1-cyclopropanesulfonylaminocarbonyl-2-ethylcyclopropylcarbamoyl)-4-(7-methoxy-2-phenylquinolin-4-yloxy)pyrrolidine-1-carbonyl]-2-methylpropyl}carbamic acid tert-butyl ester] | < 50 | < 50
14 | C=CC1C[C@]1(NC(=O)[C@@H]1C[C@@H](Oc2cc(-c3ccccc3)nc3cc(OC)ccc23)CN1C(=O)[C@@H](NC(=O)OC(C)(C)C)C(C)(C)C)C(=O)N[S+]([O-])C(C)(C)C (stereo partly drawn) [Compound 61] | < 500 | < 5000
15 | COc1ccc2c(OC3C[C@@H](C(=O)NC4(C(=O)NS(=O)(=O)C5CC5)CC45CC5)N(C(=O)[C@@H](NC(=O)OC(C)(C)C)C(C)(C)C)C3)cc(-c3ccccc3)nc2c1 (stereo partly drawn) [Compound 140, {1-[2-(1-Cyclopropanesulfonylaminocarbonyl-spiro[2.2]pentane-1-ylcarbamoyl)-4-(7-methoxy-2-phenyl-quinolin-4-yloxy)-pyrrolidine-1-carbonyl]-2,2-dimethyl-propyl}-carbamic acid tert-butyl ester] | < 50 | < 500
16 | C=CC1C[C@]1(NC(=O)[C@@H]1C[C@@H](Oc2cc(-c3ccccc3)nc3cc(OC)ccc23)CN1C(=O)[C@@H](NC(=O)OC(C)(C)C)C(C)(C)C)C(=O)NS(=O)(=O)C1CC1 (stereo in doubt) [Compound 10, {1-[2-(1-Cyclopropanesulfonylaminocarbonyl-2-vinylcyclopropylcarbamoyl)-4-(7-methoxy-2-phenylquinolin-4-yloxy)-pyrrolidine-1-carbonyl]-2,2-dimethylpropyl}carbamic acid tert-butyl ester] | < 50 | < 50
17 | C=C[C@@H]1C[C@]1(NC(=O)C1C[C@@H](Oc2cc(-c3ccccc3)nc3cc(OC)ccc23)CN1C(=O)[C@@H](Nc1ccccc1[N+](=O)[O-])C(C)(C)C)C(=O)NS(=O)(=O)C1CC1 (stereo partly drawn) [Compound 128, 1-[3,3-dimethyl-2S-(2-nitrophenylamino)-butyryl]-4R-(7-methoxy-2-phenyl-quinolin-4-yloxy)-pyrrolidine-2S-carboxylic acid (1R-cyclopropanesulfonyl-aminocarbonyl-2S-vinylcyclopropyl)amide] | < 5000 | < 5000
18 | C=CCC[C@](C)(NC(=O)[C@@H]1C[C@@H](Oc2cc(-c3ccccc3)nc3cc(OC)ccc23)CN1C(=O)C(NC(=O)OC(C)(C)C)C(C)(C)C)C(=O)NS(=O)(=O)c1ccc(Cl)cc1 (stereo partly drawn) [Compound 44] | < 50 | < 500
